The NIST ThermoML archive (doi:10.1021/je400512u)
Numbers after ± are expanded uncertainties.

Legend:
[1] = xn = mol fraction of the nth substance listed; details: 101 kPa, Liquid, x2 = 0; for viscosity: Concentric cylinders viscometry; for speed of sound: Pulse-echo method; for mass density: Vibrating tube method
[2] = 101 kPa, Liquid; for viscosity: Concentric cylinders viscometry; for speed of sound: Pulse-echo method; for mass density: Vibrating tube method

C1COCCO1 [1,4-dioxane] + CCCCCCCO
[1]
Details	mass density [kg/m3]	speed of sound [m/s]	viscosity [mPa·s]
298.15 K	1027.99 ± 0.25	1345.1 ± 1.2	1.212 ± 0.042
303.15 K	1022.33 ± 0.25	1323.1 ± 1.2	1.115 ± 0.039
308.15 K	1016.66 ± 0.24	1301.3 ± 1.2	1.028 ± 0.036
313.15 K	1010.98 ± 0.24	1279.7 ± 1.2	0.952 ± 0.033
318.15 K	1005.28 ± 0.23	1258.2 ± 1.2	0.883 ± 0.031
323.15 K	999.58 ± 0.23	1237.4 ± 1.2	0.822 ± 0.029

CCCCCCCO [heptan-1-ol]
[2]
Details	mass density [kg/m3]	speed of sound [m/s]	viscosity [mPa·s]
298.15 K	819.73 ± 0.23	1328.3 ± 1.2	5.869 ± 0.2
303.15 K	816.183 ± 0.23	1311.3 ± 1.2	4.989 ± 0.17
308.15 K	812.61 ± 0.23	1294.5 ± 1.2	4.27 ± 0.15
313.15 K	809.011 ± 0.23	1277.7 ± 1.2	3.677 ± 0.13
318.15 K	805.383 ± 0.24	1261.1 ± 1.2	3.186 ± 0.11
323.15 K	801.731 ± 0.24	1245.1 ± 1.2	2.777 ± 0.096

C1COCCO1 [1,4-dioxane]
[2]
Details	mass density [kg/m3]	speed of sound [m/s]	viscosity [mPa·s]
298.15 K	1027.99 ± 0.25	1345.1 ± 1.2	1.212 ± 0.042
303.15 K	1022.33 ± 0.25	1323.1 ± 1.2	1.115 ± 0.039
308.15 K	1016.66 ± 0.24	1301.3 ± 1.2	1.028 ± 0.036
313.15 K	1010.98 ± 0.24	1279.7 ± 1.2	0.952 ± 0.033
318.15 K	1005.28 ± 0.23	1258.2 ± 1.2	0.883 ± 0.031
323.15 K	999.58 ± 0.23	1237.4 ± 1.2	0.822 ± 0.029
